The results in this text go back to patent US20130274185A1, “Pharmaceutical for Pseudo-Exercise Therapy” (THE UNIVERSITY OF TOKYO, priority 2010, published 2013).

Assay [1] concerns muscle-R1KO mice. In words: Treatment of muscle-R1KO mice with AICAR, resveratrol or MnTBAP. Type of assay: in vivo. The following applies: AICAR 500 mg per kg body weight, 2 hours.
Protocol: Mitochondrial content assays were carried out as described in the following document (Cell Metab. 4, 75-87 (2006)), with slight modifications. Quantification of the mitochondrial content was conducted by using mtDNA and MitoTracker Green probe (Molecular Probes) according to the method as described in the following document (Obes. Res. 13, 574-581 (2005)). MitoTracker Green probe preferentially accumulates in mitochondria regardless of the mitochondrial membrane potential and provides an accurate assessment of mitochondrial mass. Cells were washed with PBS and after addition of 100 nM MitoTracker Green FM (Molecular Probes), incubated at 37° C. for 30 min. […] Fluorescence intensity was detected with excitation and emission wavelengths of 490 and 516 nm, respectively, and the values thus measured were corrected for total protein (mg/ml).
Oral glucose tolerance test (OGTT) and insulin tolerance test (ITT) were conducted by the method described in the following documents (Nature Med. 8, 1288-1295 (2002); Nature Med. 7, 941-946 (2001)), with some modifications. The areas of the glucose and insulin curves were calculated, respectively, by multiplying the cumulative mean height of the glucose values (1 mg/ml=1 cm) and insulin values (1 ng/ml=1 cm) by time (60 min=1 cm) (Nature Med. 13, 332-339 (2007); Nature Med. 7, 941-946 (2001)). […]
The test system of a further assay is PGC-1α (Ppargc1a). Kind of assay: PGC-1α (Ppargc1a) expression in C2C12 myocytes. Type of assay: cell-based, mouse. The settings on record: C2C12; preincubation AraA 0.5 mM 1 hr, STO-609 1 μg/ml 6 hr or EGTA 5 mM 20 min, then adiponectin 10 μg/ml 1.5 hr. The procedure: Real-time PCR was carried out according to the method described in the following documents (Nature Med. 13, 332-339 2007); Nature 423, 762-769 (2003); J. Biol. Chem. 281, 8748-8755 (2006)). Total RNA was prepared from cells or tissues by using Trizol (Invitrogen) according to the manufacturer's instructions. Quantification of mRNA was conducted using a real-time PCR method (Nature 423, 762-769 (2003)) with slight modifications. The procedures used for immunoblotting are described in the following documents (Nature Med. 7, 941-946 (2001); J. Biol. Chem. 281, 26602-26614 (2006); J. Biol. Chem. 281, 8748-8755 (2006)). The livers or muscles were freeze-clamped in liquid nitrogen in situ (Nature Med. 7, 941-946 (2001); J. Biol. Chem. 281, 26602-26614 (2006); J. Biol. Chem. 281, 8748-8755 (2006)).
(§1) The mouse C2C12 myoblasts were grown in 90% Dulbecco's modified high glucose Eagle's medium containing 10% (v/v) fetal bovine serum. When the cells reached 80% confluent, the myoblasts were induced to differentiate into myocytes by replacing the medium with a low serum differentiation medium (98% Dulbecco's modified high glucose Eagle's medium, 2.5% (v/v) horse serum). The medium was changed daily. The C2C12 cells were transfected by using Pofectamine 2000 (Invitrogen) and following the manufacturer's instructions.

For assay [2], the system named is C2C12 myocytes. In words: Mitochondrial content assay in C2C12 myocytes. Type of assay: cell-based, mouse. The following applies: C2C12; preincubation AraA 0.5 mM 1 hr or STO-609 1 μg/ml 6 hr, then 10 μg/ml adiponectin 48 hr. As for the experimental part:
as §1
Mitochondrial content assays were carried out as described in the following document (Cell Metab. 4, 75-87 (2006)), with slight modifications. Quantification of the mitochondrial content was conducted by using mtDNA and MitoTracker Green probe (Molecular Probes) according to the method as described in the following document (Obes. Res. 13, 574-581 (2005)). MitoTracker Green probe preferentially accumulates in mitochondria regardless of the mitochondrial membrane potential and provides an accurate assessment of mitochondrial mass. Cells were washed with PBS and after addition of 100 nM MitoTracker Green FM (Molecular Probes), incubated at 37° C. for 30 min. Cells were harvested by using trypsin/EDTA and resuspended in PBS. Fluorescence intensity was detected with excitation and emission wavelengths of 490 and 516 nm, respectively, and the values thus measured were corrected for total protein (mg/ml).

The subject of a further assay is AMPK. In words: AMPK phosphorylation in C2C12 myocytes. The settings on record: C2C12; for effect on adiponectin-induced increased AMPK phosphorylation: preincubation 5 mM EGTA 20 min, 50 μM BAPTA-AM 30 min or 10 μM U73122 30 min, then adiponectin 30 μg/ml 5 min. Type of assay: cell-based, mouse. As for the experimental part: as §1
Assay [3] deals with muscle-R1KO mice. In words: Increased calcium influx experiment (Bay-K 8644 hydrogel) in muscle-R1KO mice. Type of assay: in vivo. The settings on record: 0.25 μM Bay-K 8644.
The next assay deals with CaMKI. In words: CaMKI phosphorylation in C2C12 myocytes. It counts as cell-based, mouse. The settings on record: EGTA 5 mM. The procedure: as §1
The target in the next assay is T1, AdipoR1 (Mus musculus, UniProt Q91VH1).
T1 construct: expressed in transfected cells; host or cells: Xenopus oocytes (stage V to VII), cRNA synthesized from linearized modified pSPUTK
T1 sequence (Q91VH1 1-375): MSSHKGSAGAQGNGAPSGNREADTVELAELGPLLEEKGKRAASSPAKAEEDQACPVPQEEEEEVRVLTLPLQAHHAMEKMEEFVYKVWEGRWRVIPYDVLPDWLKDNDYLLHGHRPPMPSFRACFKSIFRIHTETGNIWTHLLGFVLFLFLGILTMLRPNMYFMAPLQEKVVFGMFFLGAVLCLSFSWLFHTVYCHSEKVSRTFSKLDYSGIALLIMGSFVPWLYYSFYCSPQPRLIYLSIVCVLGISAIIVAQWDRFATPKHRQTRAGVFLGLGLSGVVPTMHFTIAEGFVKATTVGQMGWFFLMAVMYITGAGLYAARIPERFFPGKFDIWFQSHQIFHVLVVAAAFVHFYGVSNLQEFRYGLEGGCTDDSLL
In words: Electrophysiological recording in Xenopus oocytes expressing AdipoR1. It counts as cell-based. The following applies: oocytes expressing AdipoR1, 5 mM EGTA. The procedure:
Stage V to VII oocytes were treated with 2 mg/ml of collagenase S-1 (Nitta gelatin) in calcium ion-free saline solution (82.5 mM NaCl, 2 mM KCl, 1 mM MgCl2, and 5 mM HEPES, pH 7.5) for 1 to 2 hr at room temperature. The resulting oocytes were then microinjected with 50 ng of cRNA for mAdipoR1. The cRNA was synthesized from linearized modified pSPUTK. The injected oocytes were incubated for 3 days at 18° C. in a bath solution (88 mM NaCl, 1 mM KCl, 0.3 mM Ca(NO3)2, 0.4 mM CaCl2, 0.8 mM MgSO4, 2.4 mM […], 15 mM HEPES, pH 7.6) supplemented with 10 μg/ml of penicillin and streptomycin.
Whole cell currents were recorded with a two-electrode voltage clamp technique. Intracellular glass electrodes were filled with 3M KCl. Signals were amplified with an OC-725C amplifier (Warner Instruments), low-pass filtered at 50 Hz, and digitized at 1 kHz. A control bath solution contained 115 mM NaCl, 2.5 mM KCl, 1.8 mM CaCl2, and 10 mM HEPES. It was titrated to pH 7.2 with NaOH. A calcium ion free solution containing 1.8 mM BaCl2 instead of CaCl2 was used. The inward current was monitored at a holding potential of −80 mV. Calcium ion activated Cl^− current was monitored by applying 500-mscc depolarizing pulses of +100 mV and +50 mV from the holding potential of −80 mV. Adiponectin was supplied to the superfusing bath solution via a silicon tube connected to computer-driven solenoid valves. Data acquisition and analysis were carried out using Digidata 1322A and pCLAMP software.

Assay [4] has as its system C2C12 myocytes. In words: Calcium imaging in C2C12 myocytes (fura-2). It counts as cell-based, mouse. The procedure: C212 myocytes cultured on glass base dishes (IWAKI) were treated with 2.5 μM fura-2/AM for 30 min. Fluorescence was measured with an Aquacosmos Calcium Imaging system (Hamamatsu Photonics). Ligands were delivered through the superfusing Ringer's solution (140 mM NaCl, 5.6 mM KCl, 5 mM HEPES, 2.0 mM sodium pyruvate, 1.25 mM KH2PO4, 2.0 mM CaCl2, 2.0 mM MgCl2, 9.4 mM D-glucose (pH 7.4)). For the calcium chelating experiment, EGTA solution (140 mM NaCl, 5.6 mM KCl, 5 mM HEPES, 2.0 mM sodium pyruvate, 1.25 mM KH2PO4, 2.0 mM MgCl2, 5.0 mM EGTA-2Na, 9.4 mM D-glucose (pH 7.4) was used for the bath solution. Fura-2 fluorescence ratios were calibrated to calcium ion signals.

Consider `NC(=O)c1ncn([C@@H]2O[C@H](CO)[C@@H](O)[C@H]2O)c1N` [AICAR, 5-aminoimidazole-4-carboxamide-1-β-D-libocide], for which the “phosphorylation of AMPK in muscle” value in the assay with muscle-R1KO mice [1] is given as “significantly increased”.

In the case of `Nc1ncnc2c1ncn2[C@@H]1O[C@H](CO)[C@@H](O)[C@@H]1O` [AraA, reference compound], the “effect on PGC-1α expression induced by adiponectin” value (from here on “effect on PGC-1α expression induced”) in the assay on PGC-1α (Ppargc1a) is on record as “only tended to decrease”. The “effect on the adiponectin-induced increase in mitochondrial biogenesis” value in the assay with C2C12 myocytes [2] is listed as “almost completely abolished”.

Regarding `CC(=O)OCOC(=O)CN(CC(=O)OCOC(C)=O)c1ccccc1OCCOc1ccccc1N(CC(=O)OCOC(C)=O)CC(=O)OCOC(C)=O` [BAPTA-AM, Bis-(o-aminophenoxy)ethane-N,N,N9,N9-tetra-acetic acid, tetraacetoxymethyl ester], in the assay on AMPK, the “effect on adiponectin-induced increased AMPK phosphorylation” value is listed as “partially suppressed”.

Consider `COC(=O)C1=C(C)NC(C)=C([N+](=O)[O-])C1c1ccccc1C(F)(F)F` (centres unmarked) [Bay-K 8644], for which the “CaMKKβ activity (phosphorylation of CaMKI) in skeletal muscle” value with muscle-R1KO mice [3] is reported as “increase in CaMKKβ activity”.

On to `O=C(O)CN(CCOCCOCCN(CC(=O)O)CC(=O)O)CC(=O)O` [EGTA, reference compound], for which the “effect on PGC-1α expression induced” value in the assay on PGC-1α (Ppargc1a) was “effectively and almost completely abolished”. In addition, the “effect on increased CaMKI phosphorylation stimulated with adiponectin” value in the assay on CaMKI is “almost completely abolished”. Further, at AdipoR1, the “effect on adiponectin-induced inward current responses” value was “almost completely abolishes” and the “effect on calcium-ion activated Cl- current responses to adiponectin” value is on record as “almost completely abolished”. In addition, the “effect on adiponectin-induced calcium ion response” value with C2C12 myocytes [4] (5 mM EGTA) is “almost completely abolished”. Also, in the assay with C2C12 myocytes [4] (EGTA), the “effect on ATP-induced intracellular calcium ion release” value is “had no effect”. Besides, in the assay on AMPK (5 mM EGTA, AICAR 1 mM 1 hr), the “effect on phosphorylation of AMPK induced by AICAR” value was “had no effect”. In the assay with AMPK (5 mM EGTA, ionomycin 1 μM 5 min), the “effect on ionomycin-dependent phosphorylation of AMPK” value was “almost completely abolished”. In the assay on AMPK, the “effect on adiponectin-induced increased AMPK phosphorylation” value is listed as “partially suppressed”.

As for `O=C(O)c1ccc2c3c1cccc3c(=O)n1c3ccccc3nc21` [STO-609, reference compound], the “effect on PGC-1α expression induced” value in the assay on PGC-1α (Ppargc1a) was “effectively and almost completely abolished”. In addition, the “effect on the adiponectin-induced increase in mitochondrial biogenesis” value in the assay on C2C12 myocytes [2] was “almost completely abolished”.

With `COc1ccc2c(c1)CC[C@@H]1[C@@H]2CC[C@]2(C)[C@@H](NCCCCCCN3C(=O)C=CC3=O)CC[C@@H]12` [U73122], the “effect on adiponectin-induced increased AMPK phosphorylation” value in the assay on AMPK was “had little effect”.
